This is an account of results in publication PMC12073189, “Synthesis and Evaluation of a Novel Zuranolone Analog with High GABAA Receptor PAM Activity and Excellent Pharmacokinetic Profiles” (Molecules, 2025).

The nature of data set [1]: Liver microsome metabolic stability (HLM). The settings on record: for half-life at 1 μmol/L: read-out: HLM T1/2. Set-up: microsomal CLint at 1 μmol/L: unit not given here. It counts as in vitro ADME, human. How it is done: (§1) We quantified S1–S15 and Zuranolone using a UPLC-MS/MS (Agilent 1290 Infinity II UHPLC (Agilent Technologies, Santa Clara, CA, USA) coupled with a QTRAP 5500 MS/MS (ESI source) (SCIEX, Redwood City, CA, USA for MS/MS). The method assessed the content level of S9 and Zuranolone in microsome metabolism and in rat brain tissue and plasma. An ACQUITY UPLC Peptide BEH C18 column (Waters; 50 × 2.1 mm, 1.7 μm; 60 °C; Waters Corporation, Milford, MA, USA) was used with a mobile phase of 0.02% propionic acid in water (A) and acetonitrile (B). The gradient elution of the mobile phase B is carried out as follows: it is 10% from 0 to 0.5 min, 90% from 0.8 to 2.5 min, and 10% from 2.8 to 3.5 min, with a flow rate of 0.40 mL/min. Quantitative analysis was performed on a QTRAP 5500 MS (SCIEX, Redwood City, CA, USA) in positive ionization mode with MRM (multiple reaction monitoring), using progesterone-d9 as the internal standard. MRM transitions and parameters were optimized for each analyte, with collision energies of 25 V (S1–S15), 23 V (Zuranolone), and 30 V (IS), and declustering potentials of 80 V (S1–S15), 90 V (Zuranolone), and 180 V (IS). Other conditions were as follows: curtain gas 10 psi, collision gas ‘medium’, ion spray voltage 5500 V, temperature 500 °C, and ionization source gases 1 and 2 at 50 psi.
To evaluate the metabolic stability of compounds S1–S15 and Zuranolone in RLM and HLM, we designed the following in vitro liver microsome metabolism assay protocol. In a 1.5 mL centrifuge tube, sequentially add 173 μL of PBS (0.1 M, pH 7.4), 5 μL of liver microsomes (20 mg/mL), and 2 μL of the test compound (100 μmol/L). After thorough mixing, pre-incubate at 37 °C for 10 min. Subsequently, add 20 μL of NADPH to initiate the metabolism, with a parallel control without NADPH, to validate the background signal. Samples were collected at 0, 5, 10, 20, 30, and 60 min post-reaction initiation. At each designated time point, we quenched the reaction with ice-cold acetonitrile (600 μL). After centrifuging the mixture, we analyzed the supernatant using UPLC-MS/MS. For data analysis, the compound concentration at 0 min was set as 100%, with concentrations at subsequent time points expressed as residual percentages relative to the initial value, and the in vitro half-life (T1/2) and intrinsic clearance (CLint) were calculated.

Data set [2] in a line: Plasma pharmacokinetic study in rats. It counts as in vivo, rat. Particulars: for AUC(0-t) / C0 / half-life / Cmax / Tmax: rat plasma, n = 6; for bioavailability / Tmax: rat, plasma; for bioavailability: oral, 24.4 μmol/kg, i.g. 24.4 vs i.v. 6.1 μmol/kg, read-out: F (oral absolute bioavailability). How it is done: as §1
Zuranolone was solubilized in 5% DMSO with solutol HS 15 in saline. S9 was solubilized in 10% DMSA with 30% SBECD (Zibo Qianhui Biological Technology Co., Ltd., Zibo, China) in saline. After fasting for 12 h, rats (n = 6 per group) were administered Zuranolone and S9 intragastrically (i.g.) at a dose of 24.4 μmol/kg, and intravenously (i.v.) at 6.1 μmol/kg. Blood samples (200 μL) were collected into 1.5 mL tubes containing heparin at 15 min, 30 min, 1, 2, 3, 4, 6, 8, 12, 24, 48, and 96 h after i.g. or at 5, 15, 30 min, and 1, 2, 3, 4, 6, 8, 12, 24, 48, 96 h after i.v. Plasma was separated by centrifugation for 5 min (8000 rpm, 4 °C) and stored at −80 °C immediately.
Experimental data were analyzed by GraphPad Prism software 9.0 and presented as means ± SD. Statistical differences were determined by one-way ANOVA followed by Dunnett’s post-hoc test, with p < 0.05 considered statistically significant. Main pharmacokinetic parameters were calculated using Phoenix WinNonlin 8.1 (non-compartmental model), and the absolute bioavailability of S9 was determined by the following formula: (AUC i.g. (0–t) × dose i.v.)/(AUC i.v. (0–t) × dose i.g.) × 100%.

Data set [3] relates to loss of righting reflex. The data set can be described thus: Loss of righting reflex (LORR) test. It counts as in vivo, rat. The settings on record: rats; for LORR threshold dose: intragastric. How it is done:
We randomly assigned rats into 6 groups (n = 10): Zuranolone groups at doses of 9.8, 15.6, and 19.5 μmol/kg and S9 groups at doses of 38.9, 48.6, and 58.3 μmol/kg. The number of animals showing LORR, defined as the inability to turn over within 30 s while in the supine position, was recorded within 4 h following intragastric administration of the test drugs or vehicle.

Setting [4] is: iv, 6.1 umol/kg, i.v. 6.1 μmol/kg.
[5] abbreviates: po, 24.4 umol/kg, i.g. 24.4 μmol/kg.

For `C[C@@]1(O)CC[C@H]2[C@H](CC[C@@H]3[C@@H]2CC[C@]2(C)[C@@H](C(=O)Cn4cnn(-c5ccnc(OCC(F)(F)F)c5)c4=O)CC[C@@H]32)C1` [S9], in data set [1] (HLM), the “fold longer T1/2 than Zuranolone” value came to 1.2 fold and the “fold lower CLint than Zuranolone” value is given as 1.2 fold. In addition, in data set [1] (pH 7.4, human liver microsomes), the microsomal CLint at 1 μmol/L was 9000 and the half-life at 1 μmol/L came to 2.57 h. In data set [2] (S28 previously reported ref 25), the “increase in AUC compared to S28” value is listed as “over 2 fold” and the “increase in T1/2 compared to S28” value is given as “over 2 fold”. In data set [2] (setting [4]), this compound had an AUC(0-t) of 24.2 µM·h, a C0 of 2.86 ± 0.223 µM and a half-life of 16.4 ± 0.56 h. Also, in data set [2] (setting [5]), the AUC(0-t) amounted to 80.4 µM·h, the Cmax is 3.6 ± 0.541 µM, the half-life is 19.8 ± 1.5 h and the Tmax is ~3.7 h. Besides, in data set [2] (rats), the bioavailability was 82.9%. Moreover, in data set [2] (rats, i.g. 24.4 μmol/kg), the “AUC0–t as fold of Zuranolone” value is reported as “approximately 6.7 fold” and the “T1/2 as fold of Zuranolone” value is reported as “approximately 5.2 fold”. Also, in data set [2] (rats, i.v. 6.1 μmol/kg), the “AUC0–t as fold of Zuranolone” value is listed as “approximately 4.7 fold” and the “T1/2 as fold of Zuranolone” value was “approximately 6.6 fold”. Also, in data set [2] (rats, route not given), the “AUC higher than Zuranolone” value came to 6 fold and the “plasma T1/2 longer than Zuranolone” value came out at 5 fold. The “Latency to LORR” value in data set [3] (i.g. 48.6 μmol/kg) is recorded as 68 min. Besides, the “Latency to LORR” value in data set [3] (i.g. 58.3 μmol/kg) came to 59 min. In data set [3], this compound gave an LORR threshold dose of 38.9 µmol/kg.
`C[C@@]1(O)CC[C@H]2[C@H](CC[C@@H]3[C@@H]2CC[C@]2(C)[C@@H](C(=O)Cn4cc(C#N)cn4)CC[C@@H]32)C1` [Zuranolone]: the half-life at 1 μmol/L in data set [1] (pH 7.4, human liver microsomes) amounted to 2.07 h. Also, in data set [2] (setting [4]), the AUC(0-t) was found to be 5.18 ± 1.73 µM·h, the C0 is 3.43 ± 1.74 µM and the half-life was 2.5 ± 1.3 h. In addition, in data set [2] (setting [5]), the AUC(0-t) stood at 12 µM·h, the highest level (Cmax) was 2.28 ± 0.554 µM, the half-life was 3.8 ± 1.7 h and the Tmax was ~1.2 h. Besides, in data set [2] (rats), the bioavailability came out at 57.7%. Further, the “Latency to LORR” value in data set [3] (i.g. 15.6 μmol/kg) amounted to 35 min. For the same compound, in data set [3] (i.g. 19.5 μmol/kg), the “Latency to LORR” value turned out to be 30 min. The LORR threshold dose in data set [3] amounted to 9.8 µmol/kg.
